This is an account of results in BindingDB's records for doi:10.1021/jm970389+ (Abbott Laboratories, 1998).

pKi: −log10 of the molar value.

Assay [1] is described as follows: The compound was evaluated for its binding affinity against PAF receptor in rabbit platelet.
Assay [2] can be described thus: Binding potency against Platelet activating factor (PAF) receptor using [3H]C18-PAF as radioligand on rabbit platelet membranes.

As to `CC(=O)OC[n+]1cccc([C@H]2SCc3c(C(=O)c4cn(C(=O)N(C)C)c5cc(-c6ccc(F)cc6)ccc45)ccn32)c1` [1-Acetoxymethyl-3-{(R)-7-[1-dimethylcarbamoyl-6-(4-fluoro-phenyl)-1H-indole-3-carbonyl]-1H-pyrrolo[1,2-c]thiazol-3-yl}-pyridinium; chloride], the pKi in assay [1] was 8.42. Regarding `COC(=O)c1cccc2c1c(C(=O)c1ccc(Cn3c(C)nc4ccccc43)cc1)cn2C(=O)N1CCCC1` [3-[4-(2-Methyl-benzoimidazol-1-ylmethyl)-benzoyl]-1-(pyrrolidine-1-carbonyl)-1H-indole-4-carboxylic acid methyl ester], in assay [2], the pKi is 8.77. In assay [2], `Cc1nc2cnccc2n1Cc1ccc(C(=O)c2c[nH]c3c(OCc4ccccc4)cccc23)cc1` [(7-Benzyloxy-1H-indol-3-yl)-[4-(2-methyl-imidazo[4,5-c]pyridin-1-ylmethyl)-phenyl]-methanone] showed a pKi of 7.92.

For `C#Cc1cccc2c1c(C(=O)c1ccc(Cn3c(C)nc4cnccc43)c(F)c1)cn2C(=O)NC` [4-Ethynyl-3-[3-fluoro-4-(2-methyl-imidazo[4,5-c]pyridin-1-ylmethyl)-benzoyl]-indole-1-carboxylic acid methylamide], in assay [2], the pKi is 9.20. In assay [2], `Cc1nc2cnccc2n1-c1ccc(C(=O)c2cn(C(=O)N(C)C)c3cc(-c4ccc(F)cc4)ccc23)cc1` [6-(4-Fluoro-phenyl)-3-[4-(2-methyl-imidazo[4,5-c]pyridin-1-yl)-benzoyl]-indole-1-carboxylic acid dimethylamide] gave a negative logarithm of the Ki (pKi) of 6.59. On the same count and under the same terms, with `Cc1nc2ccncc2n1Cc1ccc(C(=O)c2cn(C(=O)N(C)C)c3cc(-c4ccc(F)cc4)ccc23)cc1` [6-(4-Fluoro-phenyl)-3-[4-(2-methyl-imidazo[4,5-c]pyridin-3-ylmethyl)-benzoyl]-indole-1-carboxylic acid dimethylamide] the figure was 6.21; with `COC(=O)c1cccc2c1c(C(=O)c1ccc(Cn3c(C)nc4ccccc43)cc1)cn2C(=O)N(C)C` [1-Dimethylcarbamoyl-3-[4-(2-methyl-benzoimidazol-1-ylmethyl)-benzoyl]-1H-indole-4-carboxylic acid methyl ester], 9.04; with `COC(=O)c1cccc2c1c(C(=O)c1ccc(Cn3c(C)nc4cnccc43)cc1)cn2C(N)=O` [1-Carbamoyl-3-[4-(2-methyl-imidazo[4,5-c]pyridin-1-ylmethyl)-benzoyl]-1H-indole-4-carboxylic acid methyl ester], 8.82. In assay [2], `COC(=O)c1cccc2c1c(C(=O)c1ccc(Cn3c(C)nc4c(Cl)nccc43)cc1)cn2C(=O)N(C)C` [3-[4-(4-Chloro-2-methyl-imidazo[4,5-c]pyridin-1-ylmethyl)-benzoyl]-1-dimethylcarbamoyl-1H-indole-4-carboxylic acid methyl ester] had a negative logarithm of the Ki (pKi) of 8.74.

Turning to `COC(=O)c1cc(C#Cc2ccccc2)cc2c1c(C(=O)c1ccc(Cn3c(C)nc4cnccc43)cc1)cn2C(=O)N(C)C` [1-Dimethylcarbamoyl-3-[4-(2-methyl-imidazo[4,5-c]pyridin-1-ylmethyl)-benzoyl]-6-phenylethynyl-1H-indole-4-carboxylic acid methyl ester], the negative-log Ki (pKi) in assay [2] is 9.02. In turn, `Cc1nc2cnccc2n1Cc1ccc(C(=O)c2cn(C(=O)N(C)C)c3cccc(O)c23)cc1` [4-Hydroxy-3-[4-(2-methyl-imidazo[4,5-c]pyridin-1-ylmethyl)-benzoyl]-indole-1-carboxylic acid dimethylamide] had a negative-log Ki (pKi) in assay [2] of 8.21. With `COC(=O)c1cccc2c1c(C(=O)Cc1ccc(-n3c(C)nc4cnccc43)cc1)cn2C(=O)N(C)C` [1-Dimethylcarbamoyl-3-{2-[4-(2-methyl-imidazo[4,5-c]pyridin-1-yl)-phenyl]-acetyl}-1H-indole-4-carboxylic acid methyl ester], in assay [2], the negative-log Ki (pKi) was 9.20. Same read-out and setting: with `COC(=O)c1cccc2c1c(C(=O)CCCCn1c(C)nc3cnccc31)cn2C(=O)N(C)C` [1-Dimethylcarbamoyl-3-[5-(2-methyl-imidazo[4,5-c]pyridin-1-yl)-pentanoyl]-1H-indole-4-carboxylic acid methyl ester] the figure was 7.96; with `Cc1nc2cnccc2n1Cc1ccc(C(=O)c2c[nH]c3cc(-c4ccc(F)cc4)ccc23)cc1` [[6-(4-Fluoro-phenyl)-1H-indol-3-yl]-[4-(2-methyl-imidazo[4,5-c]pyridin-1-ylmethyl)-phenyl]-methanone], 7.12; with `COC(=O)c1cccc2c1c(C(=O)C1CCC(Cn3c(C)nc4cnccc43)CC1)cn2C(=O)N(C)C` (stereo unspecified) [1-Dimethylcarbamoyl-3-[4-(2-methyl-imidazo[4,5-c]pyridin-1-ylmethyl)-cyclohexanecarbonyl]-1H-indole-4-carboxylic acid methyl ester], 8.62.

In the case of `Cc1nc2cnccc2n1CCCN(C)CC(=O)c1cn(C(=O)N(C)C)c2cc(-c3ccc(F)cc3)ccc12` [6-(4-Fluoro-phenyl)-3-(2-{methyl-[3-(2-methyl-imidazo[4,5-c]pyridin-1-yl)-propyl]-amino}-acetyl)-indole-1-carboxylic acid dimethylamide], the negative logarithm of the Ki (pKi) in assay [2] was 6.85. This pKi is 1.77 log units lower than that of the molecule before. Same read-out and setting: with `Cc1nc2cnccc2n1Cc1ccc(C(=O)c2cn(C(=O)N(C)C)c3cccc(C(=O)OC(C)C)c23)cc1` [1-Dimethylcarbamoyl-3-[4-(2-methyl-imidazo[4,5-c]pyridin-1-ylmethyl)-benzoyl]-1H-indole-4-carboxylic acid isopropyl ester] the figure was 8.33; with `Cc1[nH]c2ccccc2c1C(=O)c1ccc(Cn2c(C)nc3cnccc32)cc1` [[4-(2-Methyl-imidazo[4,5-c]pyridin-1-ylmethyl)-phenyl]-(2-methyl-1H-indol-3-yl)-methanone], 7.32.

As to `Cc1nc2cnccc2n1Cc1ccc(C(=O)c2cn(C(=O)N(C)C)c3cccc(Cl)c23)cc1` [4-Chloro-3-[4-(2-methyl-imidazo[4,5-c]pyridin-1-ylmethyl)-benzoyl]-indole-1-carboxylic acid dimethylamide], the pKi in assay [2] is 8.27. Still for that read-out and setting: under `Cc1nc2cnccc2n1Cc1ccc(C(=O)c2cn(C(=O)N(C)C)c3cccc(F)c23)cc1` [4-Fluoro-3-[4-(2-methyl-imidazo[4,5-c]pyridin-1-ylmethyl)-benzoyl]-indole-1-carboxylic acid dimethylamide] stands 8.29; under `Cc1nc2cnccc2n1Cc1ccc(C(=O)c2cn(C(=O)N(C)C)c3cccc(Br)c23)cc1` [4-Bromo-3-[4-(2-methyl-imidazo[4,5-c]pyridin-1-ylmethyl)-benzoyl]-indole-1-carboxylic acid dimethylamide], 7.96; under `COC(=O)c1cccc2c1c(C(=O)c1ccc(Cn3ccc4nc(C)nc-4c3)cc1)cn2C(=O)N(C)C` [1-Dimethylcarbamoyl-3-[4-(2-methyl-imidazo[4,5-c]pyridin-5-ylmethyl)-benzoyl]-1H-indole-4-carboxylic acid methyl ester], less than 6.00. The same measure, in the same setting: under `COC(=O)c1cccc2c1c(C(=O)c1ccc(Cn3c(C)nc4ncccc43)cc1)cn2C(=O)N(C)C` [1-Dimethylcarbamoyl-3-[4-(2-methyl-imidazo[4,5-b]pyridin-1-ylmethyl)-benzoyl]-1H-indole-4-carboxylic acid methyl ester] stands 8.54; under `Cc1nc2cnccc2n1CCN1CCN(S(=O)(=O)c2cn(C(=O)N(C)C)c3cc(-c4ccc(F)cc4)ccc23)CC1` [6-(4-Fluoro-phenyl)-3-{4-[2-(2-methyl-imidazo[4,5-c]pyridin-1-yl)-ethyl]-piperazine-1-sulfonyl}-indole-1-carboxylic acid dimethylamide], 7.28; under `Cc1nc2cnccc2n1Cc1ccc(C(=O)c2cn(C(=O)N(C)C)c3cccc(C(=O)N(C)C)c23)cc1` [3-[4-(2-Methyl-imidazo[4,5-c]pyridin-1-ylmethyl)-benzoyl]-indole-1,4-dicarboxylic acid bis-dimethylamide], 7.96.

For `Cc1nc2cnccc2n1Cc1ccc(C(=O)c2cn(C(=O)N(C)C)c3cccc(NC(=O)c4ccccc4)c23)cc1` [4-Benzoylamino-3-[4-(2-methyl-imidazo[4,5-c]pyridin-1-ylmethyl)-benzoyl]-indole-1-carboxylic acid dimethylamide], the pKi in assay [2] is 8.70.

The term pKi denotes −log10 of the Ki, conventionally taken in molar units. Lower therefore signals a high Ki.
